Assay: Cholesterol blood level of hypercholesterolemic patients treated with atorvastatin
Format: in vivo, human
Conditions: day 3 vs day 0, single dose 80 mg, five patients
Description: Further, the influence of cholesterol depletion in freshly isolated B cells of hypercholesterolemic patients treated with atorvastatin was studied. A small exploratory clinical trial was performed in which hypercholesterolemic patients (n=5) were treated with a single dose of 80 mg atorvastatin (taken in the evening) in order to reduce their cholesterol blood level and determine the effect on CD20 mAb binding on isolated B cells using flow cytometry. Approval of the study was obtained from the ethics review board of the Warsaw University Medical Center. Informed consent was provided according to the Declaration of Helsinki. […]
The cholesterol blood level was measured using automated dry chemistry system (Vitroz 250 System Chemistry (Ortho-Clinical Diagnostics, Johnson&Johnson, Piscataway, N.J.). A starting cholesterol blood level of […] was required for patients to enroll in the clinical trial. At time of recruitment, patient I.D.#4 presented with a cholesterol blood concentration […], and as such was considered hypercholesterolemic. At time of recruitment the blood cholesterol level of patient I.D.#5 turned out to be below this cut off value, and thus it can be argued whether this patient should be considered hypercholesterolemic. […] Cholesterol blood levels were subsequently measured on day 0 (pretreatment) and day 3 after treatment. […]

Structure (SMILES): CC(C)c1c(C(=O)Nc2ccccc2)c(-c2ccccc2)c(-c2ccc(F)cc2)n1CC[C@@H](O)C[C@@H](O)CC(=O)O [atorvastatin]
- reduction of average cholesterol blood concentration: 17%
